Measured values taken from ChEMBL document CHEMBL1128649, “CD45 protein tyrosine phosphatase: Determination of minimal peptide length for substrate recognition and synthesis of some tyrosine-based electrophiles as potential active-site directed irreversible inhibitors” (Bioorg Med Chem Lett, 1995).
Active and inactive are the calls of the source. No cut-off for these calls is given here. Non-standard residues stand in square brackets, D forms with d. Residues, ends and D or L forms follow the SMILES beside them. *: point of attachment. pY = N[C@@H](Cc1ccc(OP(=O)(O)O)cc1)C(=O)O; Cbz = O=C(OCc1ccccc1)*

T1: Receptor-type tyrosine-protein phosphatase C (Homo sapiens) (UniProt P08575)
T1 sequence (whole entry): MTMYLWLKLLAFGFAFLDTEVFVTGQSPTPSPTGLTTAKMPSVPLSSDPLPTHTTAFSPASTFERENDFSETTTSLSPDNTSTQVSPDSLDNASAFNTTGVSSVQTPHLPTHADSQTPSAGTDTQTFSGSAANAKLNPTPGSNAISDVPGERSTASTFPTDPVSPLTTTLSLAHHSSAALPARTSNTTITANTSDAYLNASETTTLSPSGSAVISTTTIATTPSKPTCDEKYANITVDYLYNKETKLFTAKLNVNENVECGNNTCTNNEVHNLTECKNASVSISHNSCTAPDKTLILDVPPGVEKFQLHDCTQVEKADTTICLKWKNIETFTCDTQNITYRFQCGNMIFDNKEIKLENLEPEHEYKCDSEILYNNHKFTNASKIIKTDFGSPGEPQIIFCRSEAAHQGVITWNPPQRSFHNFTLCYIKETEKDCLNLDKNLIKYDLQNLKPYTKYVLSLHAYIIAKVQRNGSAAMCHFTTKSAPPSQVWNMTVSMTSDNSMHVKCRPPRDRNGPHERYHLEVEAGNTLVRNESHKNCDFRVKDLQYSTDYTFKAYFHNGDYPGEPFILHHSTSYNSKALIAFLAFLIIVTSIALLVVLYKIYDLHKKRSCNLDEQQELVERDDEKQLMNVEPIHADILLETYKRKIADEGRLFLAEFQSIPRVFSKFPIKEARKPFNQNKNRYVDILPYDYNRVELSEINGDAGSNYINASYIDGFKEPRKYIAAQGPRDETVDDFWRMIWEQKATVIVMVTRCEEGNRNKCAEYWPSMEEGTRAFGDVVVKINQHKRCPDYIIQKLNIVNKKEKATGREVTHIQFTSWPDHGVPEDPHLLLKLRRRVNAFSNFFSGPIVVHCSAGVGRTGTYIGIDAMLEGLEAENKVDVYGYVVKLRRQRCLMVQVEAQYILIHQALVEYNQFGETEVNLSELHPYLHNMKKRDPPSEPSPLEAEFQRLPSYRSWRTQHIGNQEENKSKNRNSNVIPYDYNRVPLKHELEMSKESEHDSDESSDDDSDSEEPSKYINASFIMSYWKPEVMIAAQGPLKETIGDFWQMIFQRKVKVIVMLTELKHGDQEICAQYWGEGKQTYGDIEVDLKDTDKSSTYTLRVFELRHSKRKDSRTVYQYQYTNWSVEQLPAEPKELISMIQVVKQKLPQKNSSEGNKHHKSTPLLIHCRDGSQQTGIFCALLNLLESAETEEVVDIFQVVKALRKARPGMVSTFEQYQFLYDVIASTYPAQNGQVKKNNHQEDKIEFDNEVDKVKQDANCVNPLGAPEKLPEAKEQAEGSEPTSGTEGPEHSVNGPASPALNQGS

B1: Receptor-type tyrosine-protein phosphatase C (Homo sapiens), P08575 (protein)
chain: T1 sequence (whole entry)

Experiments:
[1] = biological target: T1, Receptor-type tyrosine-protein phosphatase C (Homo sapiens); experiment: (§1) Kinetic constant for CD45 protein tyrosine phosphatase inhibition was evaluated using malachite green assay
[2] = biological target: T1, Receptor-type tyrosine-protein phosphatase C (Homo sapiens); experiment: Compound was evaluated for inhibitory activity against CD45 protein tyrosine phosphatase at a concentration of 200 uM; no activity
[3] = biological target: T1, Receptor-type tyrosine-protein phosphatase C (Homo sapiens); experiment: (§2) Kinetic constant for CD45 Protein-tyrosine phosphatase inhibition was evaluated using malachite green assay
[4] = compound: CC(=O)N[C@@H](CCC(=O)O)C(=O)N1CCC[C@H]1C(=O)N[C@@H](CCC(N)=O)C(=O)N[C@@H](Cc1ccc(OP(=O)(O)O)cc1)C(=O)N[C@@H](CCC(N)=O)C(=O)N1CCC[C@H]1C(=O)NCC(=O)N[C@@H](CCC(N)=O)C(=O)N[C@@H](CC(N)=O)C(=O)N[C@@H](CC(C)C)C(N)=O; experiment: as §1
[5] = compound: CC(=O)N[C@@H](C)C(=O)N[C@H](C(=O)N[C@@H](CCC(=O)O)C(=O)N1CCC[C@H]1C(=O)N[C@@H](CCC(N)=O)C(=O)N[C@@H](Cc1ccc(OP(=O)(O)O)cc1)C(=O)N[C@@H](CCC(N)=O)C(=O)N1CCC[C@H]1C(=O)NCC(=O)N[C@@H](CCC(N)=O)C(=O)N[C@@H](CC(N)=O)C(=O)N[C@@H](CC(C)C)C(N)=O)[C@@H](C)O; experiment: as §1
[6] = compound: CC(=O)N[C@@H](CCC(N)=O)C(=O)N[C@@H](Cc1ccc(OP(=O)(O)O)cc1)C(=O)N[C@@H](CCC(N)=O)C(=O)N1CCC[C@@H]1C(N)=O; experiment: as §1
[7] = compound: CC(=O)N[C@@H](CCC(N)=O)C(=O)N[C@@H](Cc1ccc(OP(=O)(O)O)cc1)C(=O)N[C@@H](CCC(N)=O)C(=O)N1CCC[C@H]1C(=O)NCC(=O)N[C@@H](CCC(N)=O)C(=O)N[C@@H](CC(N)=O)C(=O)N[C@@H](CC(C)C)C(N)=O; experiment: as §1
[8] = compound: O=[N+]([O-])c1ccc(OP(=O)(O)O)cc1; experiment: as §1
[9] = compound: CC(=O)N1CCC[C@H]1C(=O)N[C@@H](CCC(N)=O)C(=O)N[C@@H](Cc1ccc(OP(=O)(O)O)cc1)C(=O)N[C@@H](CCC(N)=O)C(=O)N1CCC[C@@H]1C(N)=O; experiment: as §1
[10] = compound: CC(=O)N[C@@H](Cc1ccc(OP(=O)(O)O)cc1)C(N)=O; experiment: as §1
[11] = compound: CC(=O)N1CCC[C@H]1C(=O)N[C@@H](CCC(N)=O)C(=O)N[C@@H](Cc1ccc(OP(=O)(O)O)cc1)C(=O)N[C@@H](CCC(N)=O)C(N)=O; experiment: as §1
[12] = compound: CC(=O)N[C@@H](Cc1ccccc1)C(=O)N[C@H](C(=O)N[C@@H](C)C(=O)N[C@H](C(=O)N[C@@H](CCC(=O)O)C(=O)N1CCC[C@H]1C(=O)N[C@@H](CCC(N)=O)C(=O)N[C@@H](Cc1ccc(OP(=O)(O)O)cc1)C(=O)N[C@@H](CCC(N)=O)C(=O)N1CCC[C@H]1C(=O)NCC(=O)N[C@@H](CCC(N)=O)C(=O)N[C@@H](CC(N)=O)C(=O)N[C@@H](CC(C)C)C(N)=O)[C@@H](C)O)[C@@H](C)O; experiment: as §2

Row | Molecule | k cat [1] | Activity [2] | further results
1 | CC(=O)N1CCC[C@H]1C(=O)N[C@@H](CCC(N)=O)C(=O)N[C@@H](Cc1ccc(OP(=O)(O)O)cc1)C(=O)N[C@@H](CCC(N)=O)C(N)=O (Ac-PQ[pY]Q-NH2) | 3.95 s⁻¹ | – | –
2 | NC(=O)CC[C@H](NC(=O)[C@H](Cc1ccc(OC[C@@H]2CO2)cc1)NC(=O)[C@H](CCC(N)=O)NC(=O)OCc1ccccc1)C(N)=O | – | inactive | –
3 | CC(=O)N[C@@H](CCC(=O)O)C(=O)N1CCC[C@H]1C(=O)N[C@@H](CCC(N)=O)C(=O)N[C@@H](Cc1ccc(OP(=O)(O)O)cc1)C(=O)N[C@@H](CCC(N)=O)C(=O)N1CCC[C@H]1C(=O)NCC(=O)N[C@@H](CCC(N)=O)C(=O)N[C@@H](CC(N)=O)C(=O)N[C@@H](CC(C)C)C(N)=O (Ac-EPQ[pY]QPGQNL-NH2) | 4.22 s⁻¹ | – | –
4 | CC(=O)N[C@@H](Cc1ccccc1)C(=O)N[C@H](C(=O)N[C@@H](C)C(=O)N[C@H](C(=O)N[C@@H](CCC(=O)O)C(=O)N1CCC[C@H]1C(=O)N[C@@H](CCC(N)=O)C(=O)N[C@@H](Cc1ccc(OP(=O)(O)O)cc1)C(=O)N[C@@H](CCC(N)=O)C(=O)N1CCC[C@H]1C(=O)NCC(=O)N[C@@H](CCC(N)=O)C(=O)N[C@@H](CC(N)=O)C(=O)N[C@@H](CC(C)C)C(N)=O)[C@@H](C)O)[C@@H](C)O (Ac-FTATEPQ[pY]QPGQNL-NH2) | – | – | k cat [3]: 3.95 s⁻¹
5 | CC(=O)N[C@@H](Cc1ccc(OP(=O)(O)O)cc1)C(N)=O | 3.95 s⁻¹ | – | –
6 | CC(=O)N[C@@H](C)C(=O)N[C@H](C(=O)N[C@@H](CCC(=O)O)C(=O)N1CCC[C@H]1C(=O)N[C@@H](CCC(N)=O)C(=O)N[C@@H](Cc1ccc(OP(=O)(O)O)cc1)C(=O)N[C@@H](CCC(N)=O)C(=O)N1CCC[C@H]1C(=O)NCC(=O)N[C@@H](CCC(N)=O)C(=O)N[C@@H](CC(N)=O)C(=O)N[C@@H](CC(C)C)C(N)=O)[C@@H](C)O (Ac-ATEPQ[pY]QPGQNL-NH2) | 4.93 s⁻¹ | – | –
7 | NC(=O)[C@H](Cc1ccc(O)cc1)NC(=O)OCc1ccccc1 | – | inactive | –
8 | NC(=O)[C@H](Cc1ccc(OP(=O)(O)CCl)cc1)NC(=O)OCc1ccccc1 | – | inactive | –
9 | NC(=O)[C@H](Cc1ccc(OC[C@H]2CO2)cc1)NC(=O)OCc1ccccc1 | – | inactive | –
10 | NC(=O)[C@H](Cc1ccc(OC(=O)CCl)cc1)NC(=O)OCc1ccccc1 | – | inactive | –
11 | CC(=O)N[C@@H](CCC(N)=O)C(=O)N[C@@H](Cc1ccc(OP(=O)(O)O)cc1)C(=O)N[C@@H](CCC(N)=O)C(=O)N1CCC[C@@H]1C(N)=O | 3.95 s⁻¹ | – | –
12 | CC(=O)N[C@@H](CCC(N)=O)C(=O)N[C@@H](Cc1ccc(OP(=O)(O)O)cc1)C(=O)N[C@@H](CCC(N)=O)C(=O)N1CCC[C@H]1C(=O)NCC(=O)N[C@@H](CCC(N)=O)C(=O)N[C@@H](CC(N)=O)C(=O)N[C@@H](CC(C)C)C(N)=O (Ac-Q[pY]QPGQNL-NH2) | 4.82 s⁻¹ | – | –
13 | CC(=O)N1CCC[C@H]1C(=O)N[C@@H](CCC(N)=O)C(=O)N[C@@H](Cc1ccc(OP(=O)(O)O)cc1)C(=O)N[C@@H](CCC(N)=O)C(=O)N1CCC[C@@H]1C(N)=O | 3.95 s⁻¹ | – | –
14 | O=[N+]([O-])c1ccc(OP(=O)(O)O)cc1 | 3.95 s⁻¹ | – | –
15 | NC(=O)[C@H](Cc1ccc(OC[C@@H]2CO2)cc1)NC(=O)OCc1ccccc1 | – | inactive | –
16 | NC(=O)CC[C@H](NC(=O)[C@H](Cc1ccc(O)cc1)NC(=O)[C@H](CCC(N)=O)NC(=O)OCc1ccccc1)C(N)=O (Cbz-Gln-Tyr-Gln-NH2) | – | inactive | –
17 | B1 | – | – | Km [4]: 102 µM; Km [5]: 143 µM; Km [6]: 278 µM; Km [7]: 172 µM; Km [8]: 278 µM; Km [9]: 278 µM; Km [10]: 278 µM; Km [11]: 278 µM; Km [12]: 278 µM
